Patent US11052092B2, “N-{[2-(piperidin-1-yl)phenyl](phenyl)methyl}-2-(3-oxo-3,4-dihydro-2H-1,4-benzoxazin-7-yl)acetamide derivatives and related compounds as ROR-gamma modulators for treating autoimmune diseases” (Genfit, priority 2017, dated 2021)

Key:
[1] = biological target: T1, human RORγt (Homo sapiens, UniProt P51449); test: RORE Luciferase/RORγt transactivation assay; assay type: cell-based; conditions: COS-7 cells transfected with human IL-17 promoter luciferase reporter and RORγt plasmid; 20 h with compound; read-out: IC50, RORγt activity inhibition
T1 construct: the full-length cDNA of human RORγt; expressed in transfected cells; host or cells: COS-7 (monkey kidney)
T1 sequence (P51449 1-497 isoform P51449-2): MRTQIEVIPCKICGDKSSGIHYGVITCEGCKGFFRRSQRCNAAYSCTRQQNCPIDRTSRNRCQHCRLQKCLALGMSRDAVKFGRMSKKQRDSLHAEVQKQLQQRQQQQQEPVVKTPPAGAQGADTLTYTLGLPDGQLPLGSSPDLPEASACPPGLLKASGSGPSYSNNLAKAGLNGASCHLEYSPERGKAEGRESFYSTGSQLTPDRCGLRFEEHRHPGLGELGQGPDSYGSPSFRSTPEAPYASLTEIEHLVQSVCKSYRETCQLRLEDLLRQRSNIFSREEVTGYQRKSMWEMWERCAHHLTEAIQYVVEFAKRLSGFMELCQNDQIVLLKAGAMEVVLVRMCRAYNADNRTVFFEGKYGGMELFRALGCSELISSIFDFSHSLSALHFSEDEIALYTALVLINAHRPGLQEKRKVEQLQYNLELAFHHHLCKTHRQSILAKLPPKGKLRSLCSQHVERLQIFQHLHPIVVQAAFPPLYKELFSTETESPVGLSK
How it was run: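 COS-7 cells were transiently co-transfected with a human IL-17 promoter (RORE/CNS)–luciferase reporter and a RORγt expression plasmid, then seeded at 10000 cells/well in serum-free, phenol red-free DMEM. Compounds were added at 0.3% DMSO final. Luciferase was read with Steady-Glo, and IC50 and Emax were derived.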

[2] = biological target: T2, RORγt ligand-binding domain (RORγt-LBD) (Homo sapiens, UniProt P51449); test: Time-resolved FRET (TR-FRET) RORγt coactivator assay; conditions: GST-RORγ-LBD, biotinylated RIP140 peptide, 2 hours at room temperature
T2 construct: 20 nM recombinantly expressed RORγ-LBD fused to GST
T2 sequence (P51449 269-508 limits assumed): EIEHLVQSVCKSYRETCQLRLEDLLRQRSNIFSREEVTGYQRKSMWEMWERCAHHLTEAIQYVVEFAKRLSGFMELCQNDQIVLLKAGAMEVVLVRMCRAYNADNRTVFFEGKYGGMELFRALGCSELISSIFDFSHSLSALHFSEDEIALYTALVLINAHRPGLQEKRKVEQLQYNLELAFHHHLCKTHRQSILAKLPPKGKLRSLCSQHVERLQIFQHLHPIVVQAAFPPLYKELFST
Description: Time-resolved FRET (TR-FRET) RORγt coactivator assay was used to identify RORγ modulator compounds with ligand-dependent coactivator displacement. The assay uses a d2-labeled anti-GST antibody, synthetic N-terminally biotinylated peptide which is derived from nuclear receptor coactivator protein RIP140, and a RORγt ligand-binding domain (RORγt-LBD) that is tagged with glutathione-S-transferase (GST). The influence of compounds on the RORγ-peptide interaction relies on the binding dependent energy transfer from a donor to an acceptor fluorophor attached to the binding partner of interest. […] For reduction of background from compound fluorescence, TR-FRET method makes use of generic fluorophore labels and time resolved detection.
The assays were done in a final volume of 20 μl in a 384 well plate in a CHAPS buffer (2 mM CHAPS; 1 mM DTT, 2 mM EDTA; 0.1% BSA), containing 20 nM recombinantly expressed RORγ-LBD fused to GST, 30 nM N-terminally biotinylated peptide, 1 nM streptavidin-terbium conjugate and 20 nM d2 labeled-anti-GST. Test compounds were diluted using 10 mM stock solution. The range of the final compound concentrations used in this test was from 0.3 nM to 30 μM (logarithmic scale). DMSO content of the samples was kept at 1%. The assay was equilibrated for 2 hours in the dark at room temperature in 384 well plates (Falcon). The signal was detected by an Ultra384 reader (TECAN). […] Compounds that promote coactivator displacement induce a concentration-dependent decrease in time-resolved fluorescent signal. Data were collected and analyzed using GraphPad Prism software (GraphPad Software V5.02, San Diego Calif. USA). IC50 in μM and Emax in % were reported for each compound.

[3] = system: Murine EL-4 lymphoma cell line overexpressing human RORγt; test: IL-17 secretion from EL4 murine lymphoma; assay type: cell-based; conditions: Mus musculus; human RORγt-transfected EL4 cells, PMA (10 ng/mL) and ionomycin (1 μM), 24 h; read-out: IC50, IL-17 secretion inhibition
How it was run: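 EL-4 cells electroporated with hRORγt plasmid, seeded at 150000 cells/well and pretreated with compound for 24 h, then stimulated with PMA (10 ng/mL) plus ionomycin (1 μM final) with compound for a further 24 h at 37 °C. IL-17 in supernatant measured by HTRF or ELISA.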

IC50 [1] [nM]	IC50 [2] [nM]	IC50 [3] [nM]	melting point [°C]	Compound
1000 to 10000	10 to 100			Cc1ccc(C(NC(=O)Cc2ccc3[nH]c(=O)cc(C)c3c2)c2ccccc2)c(C)c1 (stereo not shown) [Cpd. 9, N-[(2,4-dimethylphenyl)(phenyl)methyl]-2-(4-methyl-2-oxo-1,2-dihydroquinolin-6-yl)acetamide]
1000 to 10000	10 to 100			O=C1Cc2cc(CC(=O)NC(c3ccccc3)c3ccccc3N3CCCCC3)ccc2N1 (stereo not shown) [Cpd. 15, 2-(2-oxo-2,3-dihydro-1H-indol-5-yl)-N-{phenyl[2-(piperidin-1-yl)phenyl]methyl}acetamide]
100 to 1000	100 to 1000			Cc1ccc(C(NC(=O)Cc2ccc3c(c2)C(=O)C(=O)N3C)c2ccc(C)o2)c(N2CCCCC2)c1 (stereo not shown) [Cpd. 45, 2-(1-methyl-2,3-dioxo-2,3-dihydro-1H-indol-5-yl)-N-{[4-methyl-2-(piperidin-1-yl)phenyl](5-methylfuran-2-yl)methyl}acetamide]
> 10000	100 to 1000			O=C1COc2cc(CC(=O)NC(c3ccccc3)c3ccccc3N3CCOCC3)ccc2N1 (stereo not shown) [Cpd. 7, N-{[2-(morpholin-4-yl)phenyl](phenyl)methyl}-2-(3-oxo-3,4-dihydro-2H-1,4-benzoxazin-7-yl)acetamide]
	100 to 1000			Cc1ccc(C(NC(=O)Cc2ccc3[nH]c(=O)cc(C)c3c2)c2ccccc2)c(N2CCOCC2)c1 (stereo not shown) [Cpd. 8, N-{[4-methyl-2-(morpholin-4-yl)phenyl](phenyl)methyl}-2-(4-methyl-2-oxo-1,2-dihydroquinolin-6-yl)acetamide]
	1000 to 10000			O=C(Cc1ccc2[nH]c(=O)c(=O)[nH]c2c1)NC(c1ccccc1)c1ccccc1N1CCCCC1 (stereo not shown) [Cpd. 12, 2-(2,3-dioxo-1,2,3,4-tetrahydroquinoxalin-6-yl)-N-{phenyl[2-(piperidin-1-yl)phenyl]methyl}acetamide]
100 to 1000	10 to 100			Cc1ccc(C(NC(=O)Cc2ccc3c(ccn3CCC(=O)OC(C)(C)C)c2)c2ccc(C)o2)c(C)c1 (stereo not shown) [Cpd. 99, tert-butyl 3-[5-({[(2,4-dimethylphenyl)(5-methylfuran-2-yl)methyl]carbamoyl}methyl)-1H-indol-1-yl]propanoate]
100 to 1000	100 to 1000			Cc1ccc(C(NC(=O)Cc2ccc3c(ccn3CCC(=O)OC(C)(C)C)c2)c2ccc(C)o2)c(Br)c1 (stereo not shown) [Cpd. 100, tert-butyl 3-[5-({[(2-bromo-4-methylphenyl)(5-methylfuran-2-yl)methyl]carbamoyl}methyl)-1H-indol-1-yl]propanoate]
1000 to 10000	100 to 1000			Cc1ccc(C(NC(=O)Cc2ccc3c(c2)CC(=O)N3)c2ccccc2)c(N2CCOCC2)c1 (stereo not shown) [Cpd. 18, N-{[4-methyl-2-(morpholin-4-yl)phenyl](phenyl)methyl}-2-(2-oxo-2,3-dihydro-1H-indol-5-yl)acetamide]
100 to 1000	1000 to 10000			CCc1ccc(C(NC(=O)Cc2ccc3c(c2)OCC(=O)N3)c2ccc(C)cc2C)o1 (stereo not shown) [Cpd. 32, N-[(2,4-dimethylphenyl)(5-ethylfuran-2-yl)methyl]-2-(3-oxo-3,4-dihydro-2H-1,4-benzoxazin-7-yl)acetamide]
1000 to 10000	100 to 1000			COc1ccc(C(NC(=O)Cc2ccc3c(c2)OC(C)(C)C(=O)N3)c2ccc(C)o2)c(N2CCOCC2)c1 (stereo not shown) [Cpd. 30, 2-(2,2-dimethyl-3-oxo-3,4-dihydro-2H-1,4-benzoxazin-7-yl)-N-{[4-methoxy-2-(morpholin-4-yl)phenyl](5-methylfuran-2-yl)methyl}acetamide]
1000 to 10000	1000 to 10000			O=C(Cc1ccc2c(c1)C(=O)C(=O)N2)NC(c1ccccc1)c1ccccc1N1CCCCC1 (stereo not shown) [Cpd. 20, 2-(2,3-dioxo-2,3-dihydro-1H-indol-5-yl)-N-{phenyl[2-(piperidin-1-yl)phenyl]methyl}acetamide]
1000 to 10000	100 to 1000			COc1ccc(C(NC(=O)Cc2ccc3c(c2)C(=O)C(=O)N3)c2ccccc2)c(N2CCCCC2)c1 (stereo not shown) [Cpd. 22, 2-(2,3-dioxo-2,3-dihydro-1H-indol-5-yl)-N-{[4-methoxy-2-(piperidin-1-yl)phenyl](phenyl)methyl}acetamide]
100 to 1000	100 to 1000			Cc1ccc(C(NC(=O)Cc2ccc3c(c2)OC(C)(C)C(=O)N3)c2ccccc2)c(N2CCOCC2)c1 (stereo not shown) [Cpd. 21, 2-(2,2-dimethyl-3-oxo-3,4-dihydro-2H-1,4-benzoxazin-7-yl)-N-{[4-methyl-2-(morpholin-4-yl)phenyl](phenyl)methyl}acetamide]
	1000 to 10000			CC1(C)Oc2cc(CC(=O)NC(c3ccccc3)c3ccccc3N3CCCCC3)ccc2NC1=O (stereo not shown) [Cpd. 19, 2-(2,2-dimethyl-3-oxo-3,4-dihydro-2H-1,4-benzoxazin-7-yl)-N-{phenyl[2-(piperidin-1-yl)phenyl]methyl}acetamide]
10 to 100	< 10			Cc1ccc(C(NC(=O)C2(c3ccc4c(c3)CS(=O)(=O)N4)CC2)c2ccc(C)o2)c(C)c1 (stereo not shown) [Cpd. 63, N-[(2,4-dimethylphenyl)(5-methylfuran-2-yl)methyl]-1-(2,2-dioxo-1,3-dihydro-2,1-benzothiazol-5-yl)cyclopropane-1-carboxamide]
100 to 1000	100 to 1000			Cc1ccc(C(NC(=O)Cc2ccc3c(c2)C(=Cc2c(C)noc2C)C(=O)N3)c2ccc(C)o2)c(N2CCCCC2)c1 (stereo not shown) [Cpd. 43, 2-{3-[(dimethyl-1,2-oxazol-4-yl)methylidene]-2-oxo-2,3-dihydro-1H-indol-5-yl}-N-{[4-methyl-2-(piperidin-1-yl)phenyl](5-methylfuran-2-yl)methyl}acetamide]
1000 to 10000	10 to 100			O=C(Cc1ccc2c(c1)CS(=O)(=O)N2)NC(c1ccccc1)c1ccccc1N1CCCCC1 (stereo not shown) [Cpd. 26, 2-(2,2-dioxo-1,3-dihydro-2,1-benzothiazol-5-yl)-N-{phenyl[2-(piperidin-1-yl)phenyl]methyl}acetamide]
100 to 1000	100 to 1000			COc1ccc(C(NC(=O)Cc2ccc3c(c2)OCC(=O)N3)c2ccc(C)o2)c(Br)c1 (stereo not shown) [Cpd. 34, N-[(2-bromo-4-methoxyphenyl)(5-methylfuran-2-yl)methyl]-2-(3-oxo-3,4-dihydro-2H-1,4-benzoxazin-7-yl)acetamide]
100 to 1000	100 to 1000			Cc1ccc(C(NC(=O)Cc2ccc3c(c2)C(C)(C)C(=O)N3C)c2ccc(C)o2)c(N2CCCCC2)c1 (stereo not shown) [Cpd. 40, N-{[4-methyl-2-(piperidin-1-yl)phenyl](5-methylfuran-2-yl)methyl}-2-(1,3,3-trimethyl-2-oxo-2,3-dihydro-1H-indol-5-yl)acetamide]
10 to 100		< 100	109	Cc1ccc(C(NC(=O)C2(c3ccc4[nH]cc(CNS(C)(=O)=O)c4c3)CC2)c2ccc(C)o2)c(N2CCCCC2)c1 (stereo not shown) [Cpd. 119, 1-[3-(methanesulfonamidomethyl)-1H-indol-5-yl]-N-{[4-methyl-2-(piperidin-1-yl)phenyl](5-methylfuran-2-yl)methyl}cyclopropane-1-carboxamide]
